Experiment: dermal toxicity
Format: in vivo
Conditions: species and method not stated

In the case of `CCN(CC)[P+](N(CC)CC)(N(CC)CC)N(CC)CC.[Br-]` [tetrakis(diethylamino)phosphonium bromide, reference compound], the dermal toxicity is reported as under 50 mg/kg body weight.

Work on `C1CCN([P+](N2CCCCC2)(N2CCCCC2)N2CCCCC2)CC1.[Cl-]` [tetrakis(piperidino)phosphonium chloride] yielded a dermal toxicity of about 200 mg/kg body weight.

Work on `C1CCN([P+](N2CCCC2)(N2CCCC2)N2CCCC2)C1.[Cl-]` [tetrakis(pyrrolidino)phosphonium chloride] yielded a dermal toxicity of about 390 mg/kg body weight.

Source: patent publication US6407029B1, “Mixtures comprising tetrakis(pyrrolidino/piperdino)phosphonium salts” (priority 1999, dated 2002)
